Molecules are shown by their SMILES.

The experiment deals with Acetylcholinesterase (Homo sapiens, UniProt P22303). As to the kind of experiment: Inhibition of human erythrocyte AChE using S-acetylthiocholine iodide as substrate pretreated for 20 mins followed by substrate addition measured after 30 mins by Ellman's method.
Chain of Acetylcholinesterase (P22303 whole entry): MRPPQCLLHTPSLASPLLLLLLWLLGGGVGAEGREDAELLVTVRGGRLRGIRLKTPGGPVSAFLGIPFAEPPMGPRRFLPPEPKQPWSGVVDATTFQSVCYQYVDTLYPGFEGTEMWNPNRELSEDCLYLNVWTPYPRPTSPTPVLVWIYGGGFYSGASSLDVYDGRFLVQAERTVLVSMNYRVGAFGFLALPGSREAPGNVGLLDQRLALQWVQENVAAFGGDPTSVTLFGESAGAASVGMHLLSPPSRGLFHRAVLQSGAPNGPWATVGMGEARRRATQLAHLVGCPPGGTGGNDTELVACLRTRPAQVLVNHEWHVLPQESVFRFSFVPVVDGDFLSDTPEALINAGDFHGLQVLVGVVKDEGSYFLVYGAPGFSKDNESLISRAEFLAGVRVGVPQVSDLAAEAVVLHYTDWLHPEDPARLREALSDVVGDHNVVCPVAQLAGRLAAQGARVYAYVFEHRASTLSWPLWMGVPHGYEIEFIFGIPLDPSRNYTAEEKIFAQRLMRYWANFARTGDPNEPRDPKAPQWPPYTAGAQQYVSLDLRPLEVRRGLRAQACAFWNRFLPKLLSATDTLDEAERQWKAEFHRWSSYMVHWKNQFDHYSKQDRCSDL
Turning to `CN1CCc2cc3c(cc2C(=O)Cc2ccc4c(c2C1)OCO4)OCO3`, the IC50 – broadly, the point on the concentration scale where inhibition reaches its midpoint – was above 100 µM.

Turning to `C[C@H](c1ccc2c(c1O)OCO2)c1nccc2cc3c(cc12)OCO3`, the half-maximal inhibitory concentration (IC50) is above 100 µM. For `CN1CCc2cc3c(cc2[C@H]1[C@H]1O[C@@H](O)c2c1ccc1c2OCO1)OCO3` the value was above 100 µM; for `C[C@]1(c2nccc3cc4c(cc23)OCO4)Oc2ccc3c(c2O1)OCO3`, above 100 µM; for `CO[C@@H]1O[C@](C)(c2nccc3cc4c(cc23)OCO4)c2ccc3c(c21)OCO3`, above 100 µM.

In the case of `CN1CCc2cc3c(cc2C1=O)OCO3`, the IC50 is above 100 µM. For `CN1CCc2cc3c(cc2C12OCc1c(ccc4c1OCO4)C2=O)OCO3` (racemic) the value was above 100 µM; for `c1cc2cc3c(cc2c([C@@H]2Oc4ccc5c(c4O2)OCO5)n1)OCO3`, above 100 µM. `CO[C@@H]1O[C@H]([C@@H]2c3cc4c(cc3CCN2C)OCO4)c2ccc3c(c21)OCO3`: the IC50 is above 100 µM. In the case of `CO[C@@H]1O[C@@](C)(c2nccc3cc4c(cc23)OCO4)c2ccc3c(c21)OCO3`, the IC50 was above 100 µM. The figure for `CO[C@H]1O[C@](C)(c2nccc3cc4c(cc23)OCO4)c2ccc3c(c21)OCO3` is above 100 µM; for `CN1CCc2cc3c(cc2[C@@]12C(=O)c1ccc4c(c1[C@@H]2O)OCO4)OCO3` it is above 100 µM; for `C[C@@]1(c2nccc3cc4c(cc23)OCO4)Oc2ccc3c(c2O1)OCO3` it is above 100 µM. For `CC1(c2nccc3cc4c(cc23)OCO4)OC(O)c2c1ccc1c2OCO1` (single isomer, unassigned) the value was 11.3 µM; for `CC1(c2nccc3cc4c(cc23)OCO4)OC(O)c2c1ccc1c2OCO1` (single isomer, unassigned; epimer 1), 12.2 µM; for `CO[C@H]1O[C@@](C)(c2nccc3cc4c(cc23)OCO4)c2ccc3c(c21)OCO3`, 28.3 µM. On to `c1cc2cc3c(cc2c([C@H]2Oc4ccc5c(c4O2)OCO5)n1)OCO3`, for which the 50% inhibitory concentration (IC50) stood at 78.1 µM. The figure for `COc1ccc2c(c1O)CN1CCc3cc4c(cc3C1C2)OCO4` (configuration not stated) is above 100 µM; for `C[C@@H](c1ccc2c(c1O)OCO2)c1nccc2cc3c(cc12)OCO3` it is above 100 µM; for `COC1c2c(ccc3c2OCO3)-c2ccc3cc4c(cc3c2N1C)OCO4` (configuration not stated) it is 96.8 µM. The figure for `CN1Cc2c(ccc3c2OCO3)-c2ccc3cc4c(cc3c21)OCO4` [DIHYDROSANGUINARINE] is above 100 µM; for `CN1CCc2cc3c(cc2[C@H]1[C@H]1OC(=O)c2c1ccc1c2OCO1)OCO3` it is above 100 µM.
